Several values for one entry are separate records, joined by “and”; a condition that tells them apart may be missing. Equal values may be shown once.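 Each compound was tested at five concentrations against cells in 96-well plates for 48 hours. GI50 marks 50% less growth. TGI is the concentration that stops growth completely.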

Assay in all cases: NCI tumour cell line growth inhibition, 48 h
Assay [1] concerns TK-10 renal.
For assay [2], the system named is HOP-62 NSCLC.
Assay [3] has as its system CCRF-CEM leukemia.
Assay [4] deals with BT-549 breast.
The test system of assay [5] is KM12 colon.
For assay [6], the system named is UO-31 renal.
Assay [7] concerns OVCAR-3 ovarian.
Assay [8] has as its system HCT-15 colon.
The subject of assay [9] is IGROV1 ovarian.
Assay [10] deals with HCT-116 colon.

Turning to `CC(=O)Nc1ccc(C(=O)CCl)cc1`, the GI50 in assay [1] was 2.82 µM; in assay [2], 15 µM; in [3] it was 2410 nM; in [4] it was 4.94 µM; in assay [5] it was 12200 nM; in assay [6], 1710 nM. Also, the GI50 was 2550 nM in assay [7], 2390 nM in assay [8], 14800 nM in assay [9] and 2200 nM in assay [10]. For the same compound, the TGI was found to be 7.71 µM in assay [1]; 32.1 µM in assay [2]; 7.51 µM in assay [3]; 17.1 µM in [4]; 25.7 µM in assay [5]; 3.26 µM in assay [6]. For the same compound, the TGI in [7] was determined as 5.82 µM; in [8] it was 7.6 µM; in assay [9], 31 µM; in assay [10], 4.95 µM.

Take `Oc1ccc(Cl)cc1C(c1cc(Cl)ccc1O)C(Cl)(Cl)Cl`: the GI50 in assay [1] is 2.27 µM; in assay [2] it was 1.7 µM; in [3], 3200 nM; in [4], 1.82 µM; in [5], 1730 nM; in assay [6] it was 1500 nM. For the same compound, the GI50 in assay [7] is 1920 nM; in assay [8] it was 1940 nM; in [9], 1630 nM; in assay [10], 1560 nM. In addition, the TGI stood at 5.01 µM in assay [1]; 3.64 µM in [2]; 8.02 µM in assay [3]; 4.71 µM in assay [4]; 3.34 µM in assay [5]; 4.78 µM in [6]. Moreover, the TGI was found to be 4.23 µM in assay [7], 5.07 µM in [8], 5.67 µM in assay [9] and 2.97 µM in assay [10].

With `Clc1nccc2c(-c3csc(-c4c[nH]c5ccc(Br)cc45)n3)c[nH]c12`, the GI50 in [1] is 4.16 µM; in [2] it was 2.11 µM; in [3], 3160 nM; in [4] it was 4.7 µM; in assay [5], 2150 nM; in [6], 932 nM. In addition, the GI50 in assay [7] is 3450 nM; in assay [8], 1400 nM; in assay [9], 2510 nM; in assay [10], 2350 nM. Moreover, the TGI was found to be 13.4 µM in assay [1]; 7.24 µM in assay [2]; 20.9 µM in [3]; 24.4 µM in assay [4]; 5.7 µM in [5]; 11.5 µM in assay [6]. For the same compound, the TGI came to 15 µM in assay [7], 3.33 µM in assay [8], 15.4 µM in assay [9] and 10.5 µM in [10].

`COc1cccc(/C=C/C(=O)c2ccc3cc(OC)ccc3c2)c1`: the GI50 was 15.6 µM in assay [1]; 17.3 µM in [2]; 8.07 µM in [4]; 9910 nM in assay [5]; 9250 nM in assay [6]; 9670 nM in assay [7]. Also, the GI50 is 9730 nM in [8], 4050 nM in assay [9] and 9210 nM in [10]. Also, the TGI in [1] is 46.4 µM; in assay [2], greater than 50 µM; in assay [4] it was 17.7 µM; in [5] it was 22.9 µM; in [6], 19 µM; in assay [7], 22.8 µM. Further, the figures for the TGI in [8], in [9] and in [10] were 30.8 µM, 21.7 µM and 16.2 µM, respectively.

For `C=C1C[C@H]2C=Nc3cc(OCCCOc4cc5c(cc4OC)C(=O)N4CC(=C)C[C@H]4C=N5)c(OC)cc3C(=O)N2C1`, the TGI in [1] was less than 0.177 µM; in assay [2] it was less than 0.215 µM; in assay [3] it was 0.0144 µM; in [5], 0.0722 µM and 0.0169 µM; in assay [6], 0.289 µM; in assay [7] it was 0.2 µM. The TGI in [9] came out at 0.0341 µM. The GI50 is 0.19 nM in assay [3], 0.0126 µM in assay [4], 20.1 nM in assay [5] and 23.1 nM in assay [8].

For the compound `CSC1=NC(=Nc2c(C)cccc2C)C2(CCC(C(C)(C)C)CC2)N1c1ccc(Cl)cc1` (stereo unspecified), the GI50 in assay [1] was 39.8 µM; in assay [2] it was greater than 100 µM; in assay [4], 54.1 µM; in assay [5] it was 20900 nM; in assay [6], 25200 nM; in assay [7], 54100 nM. For the same compound, the GI50 is 7420 nM in assay [8], 63500 nM in assay [9] and 4870 nM in assay [10]. Further, the TGI in [1], in assay [2], in assay [4], in [5], in [6] and in assay [7] was greater than 100 µM throughout. Further, the TGI in [8], in assay [9] and in [10] was greater than 100 µM throughout.

Turning to `CCOC(=O)c1c(-c2ccccc2)[n+](=O)c2cc(Cl)c(Cl)cc2n1[O-]`, the GI50 in assay [1] is 1.57 µM; in assay [2] it was 4.06 µM; in assay [4], 17.3 µM; in assay [5], 1310 nM; in assay [6] it was 3030 nM; in assay [7], 1800 nM. The GI50 in [8] was 6550 nM; in assay [9], 1630 nM; in assay [10] it was 2570 nM. Further, the TGI was 4.07 µM in assay [1]; 18.9 µM in [2]; 33.5 µM in assay [4]; 2.77 µM in assay [5]; greater than 100 µM in assay [6]; 4.41 µM in assay [7]. The TGI was 21 µM in [8], greater than 100 µM in assay [9] and 11.1 µM in assay [10].

In the case of `COc1ccc2c(c1)OC(N)=C(C#N)C2c1cc(OC)c(OC)c(OC)c1` (stereo unspecified), the GI50 in [2] was 0.0548 µM; in assay [3], 33.7 nM; in assay [4], 0.0268 µM; in assay [6], 433 nM; in assay [7] it was 25.3 nM; in assay [8], 34 nM. In addition, the GI50 was 46.3 nM in [9] and 33.1 nM in assay [10]. The TGI in assay [2] was 33.2 µM; in assay [3], greater than 100 µM; in assay [4] it was 0.0836 µM; in assay [6], greater than 100 µM; in [7] it was 0.0648 µM; in assay [8], greater than 100 µM. Also, the TGI was greater than 51 µM in [9] and greater than 37.5 µM in assay [10].

For the origin of these results see PubChem BioAssay (NCI).
